Test results: US11198695B2, “Fused ring derivative having MGAT-2 inhibitory activity” (Shionogi & Co., Ltd., priority 2017, dated 2021)

Biological target: recombinant human MGAT2 (Homo sapiens (Human), UniProt Q3SYC2)
Assay: Measurement of human MGAT2 inhibitory activity
Assay type: biochemical
Conditions: read-out: IC50 (concentration exhibiting 50% enzyme inhibition), Table 52
Procedure, shortened: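 Membrane fraction of Sf9 cells expressing N-terminally Flag-tagged full-length human MGAT2, incubated 1 h at room temperature in 100 mmol/L phosphate pH 7.4 with 2 mmol/L DTT. The substrate solution held 30 μmol/L 2-oleoylglycerol and 10 μmol/L oleoyl-CoA. Diolein product was quantified by RapidFire ESI Q-TOF MS against diolein-d5 internal standard; % inhibition was set relative to with/without-enzyme controls.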

recombinant human MGAT2, sequence (Q3SYC2 whole entry): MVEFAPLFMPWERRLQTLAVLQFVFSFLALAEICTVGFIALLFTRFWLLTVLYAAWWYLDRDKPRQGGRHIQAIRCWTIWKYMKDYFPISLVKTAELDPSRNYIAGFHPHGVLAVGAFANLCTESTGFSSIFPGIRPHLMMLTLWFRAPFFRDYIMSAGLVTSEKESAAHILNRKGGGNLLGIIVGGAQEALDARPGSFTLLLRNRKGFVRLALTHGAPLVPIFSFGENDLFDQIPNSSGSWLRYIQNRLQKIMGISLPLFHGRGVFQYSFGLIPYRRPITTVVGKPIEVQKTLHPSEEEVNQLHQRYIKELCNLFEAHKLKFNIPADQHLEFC

| IC50 | SMILES |
| --- | --- |
| 110 nM | COCCCS(=O)(=O)NC(=O)c1c2c(nn1CCC1CC1)C[C@]1(CCc3cc(OCC(F)(F)F)ccc31)NC2=O [Compound I-114] |
| 160 nM | CS(=O)(=O)CC(=O)Nc1c2c(nn1CCC(F)(F)F)C[C@]1(CCc3cc(OCC(F)(F)F)ccc31)NC2=O [Compound I-256] |
| 260 nM | O=C1N[C@@]2(CCc3cc(OCC(F)(F)F)ccc32)Cc2nn(CCC3CC3)c(C(=O)NS(=O)(=O)CC3CC3)c21 [Compound I-116] |
| 2.5 nM | CS(=O)(=O)CC(=O)Nc1c2c(nn1-c1ccc(F)cc1)C[C@]1(CCOc3cc(OCC(F)(F)F)ccc31)NC2=O [Compound I-182] |
| 12 nM | CS(=O)(=O)CC(=O)Nc1c2c(nn1CCC1CC1)C[C@](c1ccc(OCC(F)(F)F)cc1F)(C(F)(F)F)NC2=O [Compound I-171] |
| 38 nM | O=C(Nc1c2c(nn1CCC1CC1)C[C@]1(CCc3cc(OCCCC(F)(F)F)ccc31)NC2=O)c1ccccc1 [Compound I-19] |
| 6.5 nM | CS(=O)(=O)CC(=O)Nc1c2c(nn1Cc1nc(C(F)(F)F)cs1)C[C@]1(CCc3cc(OCC(F)(F)F)ccc31)NC2=O [Compound I-192] |
| 690 nM | O=C(NCc1c2c(nn1CCC1CC1)C[C@]1(CCc3cc(OCC(F)(F)F)ccc31)NC2=O)c1cccc(O)c1 [Compound I-149] |
| 760 nM | O=C1N[C@@]2(CCc3cc(OCC(F)(F)F)ccc32)Cc2nn(CCC3CC3)c(C(=O)NC3CS(=O)(=O)C3)c21 [Compound I-68] |
| 240 nM | CS(=O)(=O)CC(=O)Nc1c2c(nn1-c1cccc(C3CC3)c1)C[C@]1(CCc3cc(OCC(F)(F)F)ccc31)NC2=O [Compound I-248] |
| 41.5 nM | Cn1c(-n2nc3c(c2NC(=O)CS(C)(=O)=O)C(=O)N[C@@]2(CCc4cc(OCCCC(F)(F)F)ccc42)C3)nc2ccccc21 [Compound I-45] |
| 84 nM | CS(=O)(=O)CC(=O)Nc1c2c(nn1-c1ccc3c(c1)OC(F)(F)O3)C[C@]1(CCc3cc(OCC(F)(F)F)ccc31)NC2=O [Compound I-247] |
| 1 nM | CS(=O)(=O)CC(=O)Nc1c2c(nn1-c1ccc(Cl)cn1)C[C@]1(CCc3cc(OCC(F)(F)F)ccc31)NC2=O [Compound I-77] |
| 490 nM | COCCCCn1nc2c(c1NC(=O)CS(C)(=O)=O)C(=O)N[C@@]1(CCc3cc(OCC(F)(F)F)ccc31)C2 [Compound I-251] |
| 380 nM | O=C(NCc1c2c(nn1CCC1CC1)C[C@]1(CCc3cc(OCC(F)(F)F)ccc31)NC2=O)c1ccc(O)cc1 [Compound I-241] |
| 140 nM | Cn1nccc1C(=O)Nc1c2c(nn1CCC1CC1)C[C@]1(CCc3cc(OCC(F)(F)F)ccc31)NC2=O [Compound I-223] |
| 67 nM | CS(=O)(=O)CC(=O)Nc1c2c(nn1CCC1CC1)C[C@]1(CCc3cc(NC(=O)CC(F)(F)F)ccc31)NC2=O [Compound I-198] |
| 3.7 nM | CS(=O)(=O)CC(=O)Nc1c2c(nn1CCC1CC1)C[C@]1(CCc3cc(OCC(F)(F)F)cc(F)c31)NC2=O [Compound I-94] |
| 250 nM | CS(=O)(=O)CC(=O)Nc1nn(CCCc2ccccc2)c2c1C(=O)N[C@@]1(CCc3cc(OCCCC(F)(F)F)ccc31)C2 [Compound I-62] |
| 340 nM | Cc1cccc(-n2nc3c(c2NC(=O)CS(C)(=O)=O)C(=O)N[C@@]2(CCc4cc(OCC(F)(F)F)ccc42)C3)n1 [Compound I-134] |
| 86 nM | CS(=O)(=O)CC(=O)Nc1c2c(nn1-c1ccccn1)C[C@]1(CCc3cc(F)cc(F)c31)NC2=O [Compound I-175] |
| 14 nM | CS(=O)(=O)CC(=O)Nc1c2c(nn1-c1ccc(C#N)cc1)C[C@]1(CCc3cc(OCC(F)(F)F)ccc31)NC2=O [Compound I-133] |
| 55 nM | CC(C)(O)CCn1nc2c(c1NC(=O)CS(C)(=O)=O)C(=O)N[C@@]1(CCc3cc(OCCCC(F)(F)F)ccc31)C2 [Compound I-69] |
| 15 nM | CS(=O)(=O)CC(=O)Nc1c2c(nn1CCC1CC1)C[C@]1(CCc3cc(OCC(F)F)ccc31)NC2=O [Compound I-7] |
| 28 nM | O=C(Nc1c2c(nn1CCC1CC1)C[C@]1(CCc3cc(OCC(F)(F)F)ccc31)NC2=O)c1cncs1 [Compound I-228] |
| 500 nM | CS(=O)(=O)CC(=O)Nc1nn(CCC2CC2)c2c1C(=O)N[C@@]1(CCc3cc(OCCCC(F)(F)F)ccc31)C2 [Compound I-5] |
| 400 nM | O=C(Nc1c2c(nn1CCC1CC1)C[C@]1(CCc3cc(OCC(F)(F)F)ccc31)NC2=O)c1ccncn1 [Compound I-199] |
| 525 nM | CS(=O)(=O)CC(=O)Nc1c2c(nn1-c1cccc(C(F)(F)F)c1)C[C@]1(CCc3cc(OCC(F)(F)F)ccc31)NC2=O [Compound I-125] |
| 18 nM | O=C1N[C@@]2(CCc3cc(OCC(F)(F)F)ccc32)Cc2nn(CCC3CC3)c(NC(=O)C3CS(=O)(=O)C3)c21 [Compound I-183] |

Same assay, conditions: read-out: IC50 (concentration exhibiting 50% enzyme inhibition), Table 53

| IC50 | SMILES |
| --- | --- |
| 6.87 nM | Cc1ccc(-n2nc3c(c2C(=O)NCC2(O)CC2)C(=O)N[C@@]2(CCc4cc(OCC(F)(F)F)ccc42)C3)cc1F [II-221] |
| < 1 nM | Cc1cc(-n2nc3c(c2NC(=O)CS(C)(=O)=O)C(=O)N[C@@]2(CCc4cc(OCCCC(F)(F)F)ccc42)C3)no1 [II-282] |
| 11.7 nM | Cc1ccc(-n2nc3c(c2NC(=O)CC(N)=O)C(=O)N[C@@]2(CCOc4cc(OCC(F)(F)F)ccc42)C3)nc1 [II-269] |
| 2.55 nM | Cc1ccc(-n2nc3c(c2NC(=O)CS(C)(=O)=O)C(=O)N[C@@]2(CCOc4cc(OCC(F)F)ccc42)C3)nc1 [II-146] |
| 14 nM | N#Cc1ccc(-n2nc3c(c2C(=O)NS(=O)(=O)C2CC2)C(=O)N[C@]2(CCc4cc(OCC(F)(F)F)ccc42)C3)nc1 [II-273] |
| 47 nM | CS(=O)(=O)CC(=O)Nc1c2c(nn1CCOCC(F)F)C[C@@]1(CCc3cc(OCC(F)(F)F)ccc31)NC2=O [II-18] |
| 300 nM | CC(C)(O)C1CN(c2ccc3c(c2)CC[C@@]32Cc3nn(CCC4CC4)c(NC(=O)CS(C)(=O)=O)c3C(=O)N2)C1 [II-63] |
| 46 nM | CS(=O)(=O)CC(=O)Nc1c2c(nn1CCC1CC1)C1(Cc3ccc(OCC(F)(F)F)cc3C1)NC2=O (stereo not drawn) [II-1] |
| 58.5 nM | N#Cc1ccc(-n2nc3c(c2C(=O)NCCO)C(=O)N[C@@]2(CCc4cc(OCC(F)(F)F)ccc42)C3)nc1 [II-180] |
| 5.34 nM | CC(C)(F)COc1ccc2c(c1)CC[C@@]21Cc2nn(CCCOC(F)(F)F)c(NC(=O)CS(C)(=O)=O)c2C(=O)N1 [II-236] |
| 33.7 nM | CCO[C@H]1C[C@H](n2nc3c(c2NC(=O)CS(C)(=O)=O)C(=O)N[C@@]2(CCc4cc(OCC(F)(F)F)ccc42)C3)C1 [II-193] |
| 3.37 nM | Cc1ccc(-n2nc3c(c2NC(=O)CS(C)(=O)=O)C(=O)N[C@@]2(C3)c3ccc(OCC(F)(F)F)cc3CC2(F)F)nc1 [II-86] |
| 93 nM | O=C(COC(F)(F)F)Nc1c2c(nn1CCC1CC1)C[C@]1(CCc3cc(OCC(F)(F)F)ccc31)NC2=O [II-60] |
| 1 nM | Cc1cc(-n2nc3c(c2NC(=O)CS(C)(=O)=O)C(=O)N[C@@]2(CCOc4cc(CCC(F)(F)F)ccc42)C3)no1 [II-267] |
| 6 nM | CS(=O)(=O)CC(=O)Nc1c2c(nn1CCC1CC1)C[C@@]1(CCc3cc(C4CC4)ccc31)NC2=O [II-76] |
| 39.2 nM | N#Cc1ccc(-n2nc3c(c2C(=O)NCC(N)=O)C(=O)N[C@@]2(CCc4cc(OCC(F)(F)F)ccc42)C3)nc1 [II-127] |
| 3.91 nM | CS(=O)(=O)CC(=O)Nc1c2c(nn1-c1ccc(F)c(F)c1)C[C@]1(CCOc3cc(Cl)ccc31)NC2=O [II-250] |

| IC50 | SMILES |
| --- | --- |
| 14 nM | CS(=O)(=O)CC(=O)Nc1c2c(nn1CCC1CC1)C[C@]1(CCc3c1ccc(N1CC(F)(F)C1)c3F)NC2=O [II-260] |
| 1.74 nM | N#CCNC(=O)c1c2c(nn1-c1ccc(C#N)cn1)C[C@@]1(CCc3cc(OCC(F)(F)F)ccc31)NC2=O [II-243] |
| 6.4 nM | Cc1cnnc(-n2nc3c(c2NC(=O)CS(C)(=O)=O)C(=O)N[C@@]2(CCc4cc(OCC(F)(F)F)ccc42)C3)c1 [II-140] |
| 5.68 nM | Cc1ccc(-n2nc3c(c2NC(=O)CS(C)(=O)=O)C(=O)N[C@@]2(CCc4cc(C(F)(F)F)ccc42)C3)nc1 [II-122] |
| 3.78 nM | Cc1cc(-n2nc3c(c2NC(=O)CS(C)(=O)=O)C(=O)N[C@@]2(CCc4cc(OCC(F)(F)F)ccc42)C3)nn1C [II-205] |
| 14.3 nM | Cc1ccc(-n2nc3c(c2C(=O)NCC(F)(F)F)C(=O)N[C@@](c2ccc(OCC(F)(F)F)cc2F)(C(F)(F)F)C3)nc1 [II-240] |
| 8.7 nM | CS(=O)(=O)CC(=O)Nc1c2c(nn1CCc1ccc(F)cc1)C[C@]1(CCOc3cc(OCC(F)(F)F)ccc31)NC2=O [II-28] |
| 40.7 nM | CS(=O)(=O)CC(=O)Nc1c2c(nn1-c1ccon1)C[C@]1(CCc3cc(OCC(F)(F)F)ccc31)NC2=O [II-107] |
| 40 nM | CS(=O)(=O)CC(=O)Nc1c2c(nn1-c1ccc(C#N)cn1)CC1(CN(c3ccc(C(F)(F)F)nc3)C1)NC2=O [II-90] |
| 47 nM | COCCCn1nc2c(c1-c1nn[nH]n1)C(=O)N[C@@]1(CCc3cc(OCCCC(F)(F)F)ccc31)C2 [II-56] |
| 32 nM | CS(=O)(=O)CC(=O)Nc1c2c(nn1CCOCC(F)F)C[C@]1(CCOc3cc(OCC(F)(F)F)ccc31)NC2=O [II-24] |
| 9.5 nM | CS(=O)(=O)CC(=O)Nc1c2c(nn1CCC1CC1)C[C@@]1(CCOc3cc(OCC(F)(F)F)ccc31)NC2=O [II-9] |
| 5.49 nM | Cc1ccc(-n2nc3c(c2NC(=O)CS(C)(=O)=O)C(=O)N[C@@]2(CCc4cc(C(F)(F)F)ccc42)C3)nn1 [II-234] |
| 3.94 nM | CNS(=O)(=O)CC(=O)Nc1c2c(nn1-c1ccc(C#N)cn1)C[C@@]1(CCc3cc(OCC(F)(F)F)ccc31)NC2=O [II-70] |
| 5.72 nM | Cc1ccc(-n2nc3c(c2NC(=O)CS(C)(=O)=O)C(=O)N[C@](C)(c2ccc(OCC(F)F)cc2F)C3)nc1 [II-206] |
| 1.81 nM | Cc1cc(-n2nc3c(c2NC(=O)CS(C)(=O)=O)C(=O)N[C@@]2(CCOc4cc(Cl)ccc42)C3)no1 [II-266] |
| 26.9 nM | Cc1ccc(-n2nc3c(c2NC(=O)CS(C)(=O)=O)C(=O)N[C@@]2(CCc4ccccc42)C3)nc1 [II-165] |
